The source of these data is ChEMBL document CHEMBL1156131, “Discovery of pyrazol-3-ylamino pyrazines as novel JAK2 inhibitors” (Bioorg Med Chem Lett, 2009).

Data set [1] concerns the target T1, Tyrosine-protein kinase JAK2 (Homo sapiens, UniProt O60674). Kind of data set: Inhibition of JAK2 using 2 mM ATP as a substrate.
Data set [2] deals with T1, Tyrosine-protein kinase JAK2. The experiment in a line: Inhibition of JAK2 using 5 mM ATP as a substrate.
In data set [3] the target is T2, Tyrosine-protein kinase JAK3 (Homo sapiens, UniProt P52333).
T2 sequence (P52333 whole entry): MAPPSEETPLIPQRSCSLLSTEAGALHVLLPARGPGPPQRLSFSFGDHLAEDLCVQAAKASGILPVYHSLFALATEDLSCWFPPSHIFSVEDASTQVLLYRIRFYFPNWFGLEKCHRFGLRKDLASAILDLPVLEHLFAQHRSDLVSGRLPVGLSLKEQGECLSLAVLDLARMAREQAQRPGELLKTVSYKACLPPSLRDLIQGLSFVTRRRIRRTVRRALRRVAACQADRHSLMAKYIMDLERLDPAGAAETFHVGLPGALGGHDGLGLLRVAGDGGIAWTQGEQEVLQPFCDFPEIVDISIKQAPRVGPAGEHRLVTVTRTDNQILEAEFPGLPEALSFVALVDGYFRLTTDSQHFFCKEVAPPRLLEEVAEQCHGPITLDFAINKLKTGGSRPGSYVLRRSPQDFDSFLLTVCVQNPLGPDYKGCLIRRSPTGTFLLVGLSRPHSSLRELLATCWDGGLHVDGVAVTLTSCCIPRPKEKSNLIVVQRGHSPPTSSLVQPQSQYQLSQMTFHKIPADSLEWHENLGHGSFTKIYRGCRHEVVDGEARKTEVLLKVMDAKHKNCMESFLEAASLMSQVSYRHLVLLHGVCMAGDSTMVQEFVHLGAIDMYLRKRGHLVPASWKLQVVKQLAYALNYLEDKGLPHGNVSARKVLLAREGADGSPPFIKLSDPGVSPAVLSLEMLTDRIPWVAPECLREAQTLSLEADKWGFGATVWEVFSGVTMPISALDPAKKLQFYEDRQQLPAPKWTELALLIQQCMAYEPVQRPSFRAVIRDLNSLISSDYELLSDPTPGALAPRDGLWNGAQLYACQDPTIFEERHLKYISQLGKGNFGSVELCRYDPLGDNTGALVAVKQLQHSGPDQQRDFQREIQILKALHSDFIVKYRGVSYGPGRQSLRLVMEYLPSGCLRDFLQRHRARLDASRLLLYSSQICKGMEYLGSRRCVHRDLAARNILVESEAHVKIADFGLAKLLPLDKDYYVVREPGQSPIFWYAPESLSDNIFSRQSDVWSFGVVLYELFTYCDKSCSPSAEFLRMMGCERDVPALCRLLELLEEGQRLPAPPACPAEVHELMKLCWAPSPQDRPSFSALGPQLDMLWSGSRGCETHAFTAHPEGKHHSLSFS
The experiment in a line: Inhibition of JAK3 using 5 mM ATP as a substrate.

The target of data set [4] is T1, Tyrosine-protein kinase JAK2. The experiment in a line: Inhibition of Tel-fused JAK2.
The target in data set [5] is Cyclin-dependent kinase 2 (Homo sapiens, UniProt P24941). Kind of data set: Inhibition of CDK2.
The target in data set [6] is T3, Tyrosine-protein kinase JAK3 (Homo sapiens) (UniProt P52333).
T3 sequence (whole entry): T2 sequence (P52333 whole entry)
The experiment in a line: Inhibition of Tel-fused JAK3.

The target of data set [7] is Aurora kinase B (Homo sapiens, UniProt Q96GD4). Kind of data set: Inhibition of Aurora B.
Aurora kinase B, sequence (Q96GD4 whole entry): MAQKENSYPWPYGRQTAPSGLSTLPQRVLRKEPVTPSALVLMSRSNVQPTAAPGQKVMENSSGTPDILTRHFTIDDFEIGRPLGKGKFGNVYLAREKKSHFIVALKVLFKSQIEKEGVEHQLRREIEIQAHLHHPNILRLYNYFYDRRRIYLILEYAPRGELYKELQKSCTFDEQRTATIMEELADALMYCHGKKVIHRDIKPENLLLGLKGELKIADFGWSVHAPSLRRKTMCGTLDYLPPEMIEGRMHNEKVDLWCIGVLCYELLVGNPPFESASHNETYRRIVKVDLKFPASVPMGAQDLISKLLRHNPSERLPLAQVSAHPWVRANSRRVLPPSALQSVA
Data set [8] has as its target High affinity nerve growth factor receptor (Homo sapiens, UniProt P04629). Kind of data set: Inhibition of TRKA.
Data set [9] in a line: Clearance in Wistar rat at 10 mg/kg, po and 3 mg/kg, iv. It counts as ADME, organism-based. To be noted: in vivo.
Data set [10] is described as follows: Volume of distribution at steady state in Wistar rat at 10 mg/kg, po and 3 mg/kg, iv. In kind it is ADME, organism-based. To be noted: in vivo, read-out: Vdss.
A short description of data set [11]: Half life Wistar rat at 10 mg/kg, po and 3 mg/kg, iv. To be noted: in vivo. It counts as ADME, organism-based.
Data set [12] is described as follows: Clearance in Beagle dog at 10 mg/kg, po and 3 mg/kg, iv. In kind it is ADME, organism-based, Canis lupus familiaris. The conditions noted are these: in vivo.
A short description of data set [13]: Volume of distribution at steady state in Beagle dog at 10 mg/kg, po and 3 mg/kg, iv. It counts as ADME, organism-based, Canis lupus familiaris. The conditions noted are these: in vivo, read-out: Vdss.
Data set [14] can be described thus: Half life Beagle dog at 10 mg/kg, po and 3 mg/kg, iv. In kind it is ADME, organism-based, Canis lupus familiaris. The conditions noted are these: in vivo.
The subject of data set [15] is Mus musculus. Kind of data set: Ex vivo inhibition of STAT5 phosphorylation in NCr mouse implanted with Tel-fused JAK expressing mouse BAF3 cells at 5 mg/kg, po after 2 hrs. In kind it is functional. To be noted: BaF3, 2 h.
Data set [16] deals with Mus musculus. The experiment in a line: Ex vivo inhibition of STAT5 phosphorylation in NCr mouse implanted with Tel-fused JAK expressing mouse BAF3 cells at 10 mg/kg, po after 2 hrs. It counts as functional. To be noted: BaF3, 2 h.
The subject of data set [17] is Mus musculus. Kind of data set: Ex vivo inhibition of STAT5 phosphorylation in NCr mouse implanted with Tel-fused JAK expressing mouse BAF3 cells at 25 mg/kg, po after 2 hrs. To be noted: BaF3, 2 h. In kind it is functional.
Data set [18] has as its system Mus musculus. Kind of data set: Ex vivo inhibition of STAT5 phosphorylation in NCr mouse implanted with Tel-fused JAK expressing mouse BAF3 cells at 25 mg/kg, po after 4 hrs. It counts as functional. To be noted: BaF3, 4 h.

pIC50: −log10 of the molar value.

Usually pIC50 stands for −log10 of the IC50, conventionally taken in molar units. In general, GI50 refers to the concentration that inhibits growth by half. Read a high GI50 as lower sensitivity of the cells. Usually half-life stands for how long it takes for the measured level to halve. Higher therefore signals slow loss. A word on the inhibition in vivo: it is how much of the control response was suppressed.

T1 sequence (O60674 whole entry): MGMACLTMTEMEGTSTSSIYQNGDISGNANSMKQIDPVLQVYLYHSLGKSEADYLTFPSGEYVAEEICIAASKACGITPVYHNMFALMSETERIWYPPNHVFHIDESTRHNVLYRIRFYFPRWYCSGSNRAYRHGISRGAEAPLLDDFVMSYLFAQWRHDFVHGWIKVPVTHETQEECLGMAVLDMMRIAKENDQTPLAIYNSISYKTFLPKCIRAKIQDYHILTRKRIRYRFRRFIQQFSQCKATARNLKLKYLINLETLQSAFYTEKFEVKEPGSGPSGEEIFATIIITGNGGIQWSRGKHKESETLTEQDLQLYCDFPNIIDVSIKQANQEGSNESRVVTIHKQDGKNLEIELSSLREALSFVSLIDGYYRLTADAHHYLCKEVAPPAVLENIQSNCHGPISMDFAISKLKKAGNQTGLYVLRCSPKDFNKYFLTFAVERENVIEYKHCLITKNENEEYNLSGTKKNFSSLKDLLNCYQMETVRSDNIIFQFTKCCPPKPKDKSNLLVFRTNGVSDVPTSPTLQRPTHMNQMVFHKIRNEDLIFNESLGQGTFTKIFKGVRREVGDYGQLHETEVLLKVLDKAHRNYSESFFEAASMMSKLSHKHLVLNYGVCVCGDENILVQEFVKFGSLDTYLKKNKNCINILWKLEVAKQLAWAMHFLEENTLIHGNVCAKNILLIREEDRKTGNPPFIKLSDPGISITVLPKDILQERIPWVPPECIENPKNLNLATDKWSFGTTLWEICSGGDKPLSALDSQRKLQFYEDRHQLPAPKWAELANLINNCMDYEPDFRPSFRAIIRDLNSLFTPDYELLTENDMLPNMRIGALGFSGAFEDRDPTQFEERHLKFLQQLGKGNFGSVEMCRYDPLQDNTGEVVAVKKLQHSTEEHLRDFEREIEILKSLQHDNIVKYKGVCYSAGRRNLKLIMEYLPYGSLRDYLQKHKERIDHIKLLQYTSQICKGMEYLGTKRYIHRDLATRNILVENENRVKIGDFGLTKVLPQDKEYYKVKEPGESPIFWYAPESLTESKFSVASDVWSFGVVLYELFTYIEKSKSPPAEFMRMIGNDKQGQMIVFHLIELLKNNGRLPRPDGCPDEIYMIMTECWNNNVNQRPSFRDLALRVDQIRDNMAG
High affinity nerve growth factor receptor, sequence (P04629 whole entry): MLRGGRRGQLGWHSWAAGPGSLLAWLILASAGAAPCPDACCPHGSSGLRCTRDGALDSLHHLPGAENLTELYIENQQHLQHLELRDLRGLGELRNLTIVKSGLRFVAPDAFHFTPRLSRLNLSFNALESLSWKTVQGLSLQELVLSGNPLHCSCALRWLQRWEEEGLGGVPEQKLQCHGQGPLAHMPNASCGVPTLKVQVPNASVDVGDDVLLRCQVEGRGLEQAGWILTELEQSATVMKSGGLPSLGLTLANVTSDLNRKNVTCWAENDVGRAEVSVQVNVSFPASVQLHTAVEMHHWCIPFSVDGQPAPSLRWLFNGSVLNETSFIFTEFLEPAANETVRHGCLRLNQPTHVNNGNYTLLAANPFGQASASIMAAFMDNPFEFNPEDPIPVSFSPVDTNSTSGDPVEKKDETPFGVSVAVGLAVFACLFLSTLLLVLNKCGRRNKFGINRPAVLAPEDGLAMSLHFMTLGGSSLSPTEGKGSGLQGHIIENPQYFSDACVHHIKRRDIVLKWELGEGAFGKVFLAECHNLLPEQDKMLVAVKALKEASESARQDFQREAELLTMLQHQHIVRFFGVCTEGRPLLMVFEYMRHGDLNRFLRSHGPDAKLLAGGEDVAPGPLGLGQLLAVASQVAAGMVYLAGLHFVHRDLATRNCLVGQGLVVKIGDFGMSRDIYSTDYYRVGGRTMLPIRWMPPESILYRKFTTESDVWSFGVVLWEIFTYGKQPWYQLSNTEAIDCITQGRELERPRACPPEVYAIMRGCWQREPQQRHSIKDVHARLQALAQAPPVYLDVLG

As for `Cc1cc(Nc2nc(N[C@H](C)c3ncc(F)cn3)c(C#N)nc2C)[nH]n1`, the pIC50 in data set [1] is 7.30; in data set [2] it was 4.98; in data set [3], < 4.52.
Consider `Cc1cc(Nc2nc(N[C@@H](C)c3ccc(F)cn3)cnc2C)[nH]n1`, for which the pIC50 in [1] is > 8.52; in data set [2] it was 7.74.
`Cc1cc(Nc2nc(N[C@H](C)c3ccc(F)cn3)c(C#N)nc2C)n[nH]1`: the pIC50 in data set [1] is 7.12; in [2], 6.04.
As to `C[C@H](Nc1nc(Nc2cc(C3CC3)n[nH]2)cnc1C#N)c1ccc(F)cn1`, the results for the pIC50 in [1], in data set [2] and in data set [3] were > 8.52, 7.60 and 4.57, respectively.
For `Cc1cc(Nc2cnc(C#N)c(N[C@@H](C)c3ncc(F)cn3)n2)n[nH]1`, the GI50 in [4] is 160 nM. Also, the pIC50 was 7.30 in [5], > 8.52 in data set [1] and 8.22 in data set [2].
On to `Cc1cc(Nc2nc(NC(C)c3ccc(F)cn3)c(C#N)nc2C)n[nH]1` (stereo unspecified), for which the figures for the pIC50 in data set [1] and in data set [2] were > 8.52 and 7.33, respectively.
In the same order, the values of `COc1cc(Nc2cncc(N[C@@H](C)c3ccc(F)cn3)n2)[nH]n1` are 8.52 and 8.10.
Turning to `Cc1cc(Nc2nc(N[C@@H](C)c3ccc(F)cn3)c(C#N)nc2C)n[nH]1`, halving of growth in [4] (GI50) required 110 nM. Besides, the negative-log IC50 (pIC50) in data set [5] was 6.34; in data set [1] it was > 8.52; in [2], 7.96.
`Cc1cc(Nc2nc(O[C@H](C)c3ccc(F)cn3)c(C#N)nc2C)[nH]n1`: the pIC50 in data set [1] is 6.97; in data set [2] it was 5.33; in data set [3], < 4.52.
In the case of `Cc1cc(Nc2cncc(N[C@@H](C)c3ccc(F)cn3)n2)[nH]n1`, the figures for the pIC50 in data set [1], in data set [2] and in [3] were > 8.52, 8.52 and 4.93, respectively.
As to `Cc1cc(Nc2nc(N[C@@H](C)c3ncc(F)cn3)c(C#N)nc2C)n[nH]1`, the values for the 50% growth inhibitory concentration (GI50) in data set [4] and in data set [6] were 220 nM and 7400 nM, respectively. The negative logarithm of the IC50 (pIC50) in [5] is 6.39; in data set [7], 6.07; in data set [8], 5.83; in data set [1] it was > 8.52; in [2] it was 7.06; in [3], 4.58. In addition, the clearance is 13 mL/min/kg in data set [9] and < 2 mL/min/kg in [12]. Besides, the figures for the Vd in data set [10] and in data set [13] were 1.6 L/kg and 1.1 L/kg, respectively. Also, the figures for the half-life in data set [11] and in data set [14] were 1.6 h and 7 h, respectively. Moreover, the inhibition in vivo at 5 mg/kg in data set [15] is > 80%. In [16], the inhibition in vivo at 10 mg/kg is > 90%. The inhibition in vivo at 25 mg/kg in data set [17] was > 95%.
Consider `Cc1cc(Nc2cnc(C#N)c(N[C@@H](C)c3ccc(F)cn3)n2)n[nH]1`, for which the results for the GI50 in data set [4] and in data set [6] were 60 nM and 1100 nM, respectively. For the same compound, the negative logarithm of the IC50 (pIC50) in data set [5] is 7.52; in data set [7], 6.17; in data set [8], 6.17; in [1] it was > 8.52; in data set [2] it was 8.52; in [3], 5.29. Moreover, the clearance in data set [9] amounted to 25 mL/min/kg. Besides, the Vd in data set [10] amounted to 2.2 L/kg. Further, the half-life in data set [11] is 1.2 h. For the same compound, in [15], the inhibition in vivo at 5 mg/kg is > 80%. Moreover, the inhibition in vivo at 10 mg/kg in data set [16] was > 90%. The inhibition in vivo at 25 mg/kg in data set [17] and in [18] was > 90% each time.
With `Cc1cc(Nc2cncc(N[C@@H](C)c3ncc(F)cn3)n2)n[nH]1`, the pIC50 is > 8.52 in data set [1], 8.52 in data set [2] and 4.86 in data set [3].
Take `CC(C)Oc1cc(Nc2cncc(N[C@@H](C)c3ccc(F)cn3)n2)[nH]n1`: the pIC50 in data set [1] was 8.00; in [2], 6.38.
As to `Cc1cc(Nc2cnc(C#N)c(NC(C)c3ccc(F)cn3)n2)n[nH]1` (stereo unspecified), the results for the pIC50 in data set [1], in [2] and in data set [3] were > 8.52, 8.30 and 4.89, respectively.
In the same order, the values of `Cc1cc(Nc2nc(O[C@@H](C)c3ccc(F)cn3)c(C#N)nc2C)[nH]n1` are 8.40, 6.85 and < 4.52.
